{"source": "ChEMBL document CHEMBL1221260", "about": "“Discovery of cannabinoid-1 receptor antagonists by virtual screening” (Bioorg Med Chem Lett, 2010)", "key": {"Cannabinoid receptor 1": {"target": "Cannabinoid receptor 1 (Homo sapiens, UniProt P21554)", "sequence (P21554 whole entry)": "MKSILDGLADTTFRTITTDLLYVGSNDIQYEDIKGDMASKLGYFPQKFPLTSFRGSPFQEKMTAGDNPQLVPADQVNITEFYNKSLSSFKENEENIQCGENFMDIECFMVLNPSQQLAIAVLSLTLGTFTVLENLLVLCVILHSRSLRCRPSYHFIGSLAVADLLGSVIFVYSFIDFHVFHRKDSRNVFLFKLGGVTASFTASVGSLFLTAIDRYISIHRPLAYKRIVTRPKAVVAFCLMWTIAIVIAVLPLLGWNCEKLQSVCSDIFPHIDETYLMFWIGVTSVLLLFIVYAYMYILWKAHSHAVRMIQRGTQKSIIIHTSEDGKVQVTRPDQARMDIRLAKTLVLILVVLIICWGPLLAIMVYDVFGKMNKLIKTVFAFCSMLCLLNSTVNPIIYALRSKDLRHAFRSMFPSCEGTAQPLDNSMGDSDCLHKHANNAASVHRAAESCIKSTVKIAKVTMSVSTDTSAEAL", "experiment": "Inhibition of human CB1 receptor expressed in CHOK1 cells by luciferase reporter gene assay", "type": "cell-based", "parameters": "concentration or dose not given beside the values", "conditions": "for inhibition: CHO-K1, concentration not given here"}, "Liver microsomes [1]": {"tested_on": "Liver microsomes", "experiment": "Metabolic stability in rat liver microsomes", "type": "ADME, Microsome"}, "[2]": {"experiment": "Stability in rat plasma for 30 mins", "type": "ADME, cell-free", "conditions": "read-out: Stability"}, "Homo sapiens [3]": {"species": "Homo sapiens", "experiment": "Plasma protein binding in human", "conditions": "read-out: PPB (converted)"}, "[4]": {"experiment": "Plasma protein binding in rat", "type": "ADME, cell-free", "conditions": "read-out: PPB (converted)"}, "Liver microsomes [5]": {"tested_on": "Liver microsomes", "experiment": "Metabolic stability in human liver microsomes", "type": "ADME, Microsome"}, "Homo sapiens [6]": {"species": "Homo sapiens", "experiment": "Stability in human plasma for 30 mins"}}, "data": [{"smiles": "Cc1ccc(-n2nc3c(c2NC(=O)c2ccco2)CS(=O)(=O)C3)c(C)c1", "values": [{"measurement": "inhibition", "setting": "Cannabinoid receptor 1", "value": 90, "unit": "%"}]}, {"smiles": "C=C(C)Cn1c(SCC(=O)OC)nc2sc3c(c2c1=O)CC(C)(C)OC3", "values": [{"measurement": "IC50", "setting": "Cannabinoid receptor 1", "value": 290, "unit": "nM"}]}, {"smiles": "COC(=O)c1ccc([C@@H]2CC(=O)N3C(=C2C#N)SC[C@]3(O)c2ccc(C)cc2)cc1", "values": [{"measurement": "inhibition", "setting": "Cannabinoid receptor 1", "value": 83, "unit": "%"}]}, {"smiles": "O=C(NC[C@@H]1CCCO1)c1nc(-c2ccc(Cl)cc2)n2c1CCCCC2", "values": [{"measurement": "inhibition", "setting": "Cannabinoid receptor 1", "value": 63, "unit": "%"}]}, {"smiles": "CCOC(=O)c1c(NC(=O)Cc2ccccc2)sc2c1CCN(C(=O)OCC)C2", "values": [{"measurement": "inhibition", "setting": "Cannabinoid receptor 1", "value": 94, "unit": "%"}]}, {"smiles": "COC(=O)c1cc(S(=O)(=O)N2CCn3c2nc2ccccc23)c[nH]1", "values": [{"measurement": "inhibition", "setting": "Cannabinoid receptor 1", "value": 102, "unit": "%"}]}, {"smiles": "O=C1N=C(Nc2cccc(C(F)(F)F)c2)S/C1=C\\c1cccnc1", "values": [{"measurement": "Stability", "setting": "Liver microsomes [1]", "value": 96.1, "unit": "%"}, {"measurement": "IC50", "setting": "Cannabinoid receptor 1", "value": 125, "unit": "nM"}, {"measurement": "remaining at 0.5 h", "setting": "[2]", "value": "> 99", "unit": "%"}, {"measurement": "fraction unbound", "setting": "Homo sapiens [3]", "value": 0.058}, {"measurement": "fraction unbound", "setting": "[4]", "value": 0.034}, {"measurement": "Stability", "setting": "Liver microsomes [5]", "value": 87, "unit": "%"}, {"measurement": "remaining at 0.5 h", "setting": "Homo sapiens [6]", "value": "> 99", "unit": "%"}]}]}
